Common to all, as to assay type: cell-based
Assay [1] has as its system human lung cancer cells (A549). Description: MTT antiproliferative assay, A549. The following applies: Homo sapiens, A549, 72 h. The method, then:
(§1) Human lung cancer cell (A549,), human umbilical vein endothelial cells (HUVECs,), human colon cancer cell lines (HCT-15), human breast cancer cells (MCF-7), human liver cancer cells (HepG2), human pancreatic cancer cells (BxPC-3), and human hepatic cell line (L-02) were obtained from the Sichuan University. A549, HUVECs, and L-02 were cultured in DMEM medium (high glucose, HyClone, GE Healthcare, Sydney, Australia). Human colon cancer cell lines HCT-15, human pancreatic cancer cells […] BxPC-3 were cultured in RPMI-1640. Human breast cancer cells MCF-7 and human liver cancer cells HepG2 were cultured in MEM medium. All the mediums, including 10% fetal bovine serum (FBS, HyClone, GE Healthcare, Sydney, Australia) and 1% ampicillin/streptomycin, were used to culture the above cells at 37 °C in a humidified atmosphere (5% CO2 and 95% air).
(§2) The antiproliferative activity of the title compounds was determined using the MTT (3-(4,5-dimethylthiazol-2-yl)-2,5-diphenyltetrazolium bromide, Sigma-Aldrich, Saint Louis, MO, USA) assay on different cells. Cells lines were seeded into 96-well plates at a density of 2000 to 6000 cells/well. DMSO was used to dissolve the test compounds, and TET was used as a positive control. After 24 h, the test compounds were added at different concentrations (0.625, 1.25, 2.5, 5, 10, and 20 μM) and incubated at 37 °C for 72 h. MTT was added to each well at a final concentration of 0.5 mg/mL and incubated at 37 °C for 4 h. Then, 150 μL of DMSO was added to each well to dissolve the formazan crystals. The absorbance was measured at 570 nm by a microplate reader (ELX800UV, Bio-Tek, Windoski, VT, USA). All measurements were repeated at least three times under the same conditions. Graphpad Prism 8.0 was used to calculate the IC50 values.
(Tetrazolium dyes change colour on reduction, which living cells bring about.)

Assay [2] concerns human pancreatic cancer cells (BxPC-3). As to the kind of experiment: MTT antiproliferative assay, BxPC-3. The following applies: Homo sapiens, BXPC-3, 72 h. The method, then:
as §1, §2

For assay [3], the system named is human normal hepatocyte cells (L-02). As to the kind of experiment: MTT toxicity assay, normal hepatocytes L-02. Particulars: 72 h, normal hepatocyte L-02 (toxicity), read-out: Antiproliferative Activity (IC50/μM) L-02. The protocol: as §1, §2
The test system of assay [4] is human breast cancer cells (MCF-7). As to the kind of experiment: MTT antiproliferative assay, MCF-7. The following applies: Homo sapiens, MCF7, 72 h. The protocol: as §1, §2
For assay [5], the system named is human liver cancer cells (HepG2). Description: MTT antiproliferative assay, HepG2. Particulars: Homo sapiens, HepG2, 72 h. The protocol:
as §1, §2

Assay [6] relates to human colon cancer cells (HCT-15). As to the kind of experiment: MTT antiproliferative assay, HCT-15. The following applies: for IC50: Homo sapiens, MTT, 72 h, HCT-15. The protocol:
as §1, §2

Assay [7] concerns human umbilical vein endothelial cells (HUVEC). As to the kind of experiment: MTT antiproliferative assay, HUVEC. Particulars: 72 h. The protocol:
as §1, §2

Some results are limits rather than exact numbers.

On to `COc1cc(NC(=O)[C@H](N)Cc2ccccc2)c2cc1Oc1ccc(cc1)C[C@H]1c3cc(c(OC)cc3CCN1C)Oc1c(OC)c(OC)cc3c1[C@H](C2)N(C)CC3` [Compound 19], for which the IC50 was determined as 2.67 ± 0.14 µM in assay [1]; 1.75 ± 0.13 µM in assay [2]; 9.02 ± 0.26 µM in assay [3]; 3.31 ± 0.01 µM in assay [4]; 1.71 ± 0.46 µM in assay [5]; 3.39 ± 0.07 µM in assay [6]. Moreover, the IC50 in assay [7] worked out at 1.92 ± 0.17 µM.
Consider `COc1cc(NC(=O)[C@@H](NC(=O)OC(C)(C)C)C(C)C)c2cc1Oc1ccc(cc1)C[C@H]1c3cc(c(OC)cc3CCN1C)Oc1c(OC)c(OC)cc3c1[C@H](C2)N(C)CC3` [Compound 5], for which the IC50 was 7.24 ± 0.41 µM in assay [1]; 4.63 ± 0.09 µM in assay [2]; > 20 µM in assay [3]; 7.4 ± 0.31 µM in assay [4]; 3.54 ± 0.3 µM in assay [5]; 4.31 ± 0.09 µM in assay [6]. The same compound had an IC50 in assay [7] of 3.04 ± 0.34 µM.
As to `COc1cc(NC(=O)[C@H](Cc2ccc(O)cc2)NC(=O)OC(C)(C)C)c2cc1Oc1ccc(cc1)C[C@H]1c3cc(c(OC)cc3CCN1C)Oc1c(OC)c(OC)cc3c1[C@H](C2)N(C)CC3` [Compound 11, 14-N-(Boc-L-tyrosine)-tetrandrine], the IC50 in assay [1] turned out to be 6.26 ± 0.41 µM; in assay [2], 3.58 ± 0.15 µM; in assay [3], 11.8 ± 0.61 µM; in assay [4], 5.03 ± 0.04 µM; in assay [5], 2.81 ± 0.35 µM; in assay [6], 3.56 ± 0.27 µM. Also, the IC50 in assay [7] was 2.16 ± 0.32 µM.
Take `COc1cc(NC(=O)[C@@H](N)CC(C)C)c2cc1Oc1ccc(cc1)C[C@H]1c3cc(c(OC)cc3CCN1C)Oc1c(OC)c(OC)cc3c1[C@H](C2)N(C)CC3` [Compound 15, 14-N-(L-leucine)-tetrandrine]: the IC50 came to 5.92 ± 0.73 µM in assay [1]; 4.55 ± 0.27 µM in assay [2]; 12.08 ± 0.04 µM in assay [3]; 6.74 ± 0.16 µM in assay [4]; 3.66 ± 0.82 µM in assay [5]; 2.71 ± 0.22 µM in assay [6]. For the same compound, the IC50 in assay [7] amounted to 3.09 ± 0.36 µM.
As for `COc1cc(NC(=O)[C@H](C)N)c2cc1Oc1ccc(cc1)C[C@H]1c3cc(c(OC)cc3CCN1C)Oc1c(OC)c(OC)cc3c1[C@H](C2)N(C)CC3` [Compound 13], the IC50 in assay [1] was 8.12 ± 0.43 µM; in assay [2], 6.95 ± 0.57 µM; in assay [3] it was > 20 µM; in assay [4], 11.1 ± 0.26 µM; in assay [5] it was 3.27 ± 1 µM; in assay [6], 4.69 ± 0.47 µM. Moreover, the IC50 in assay [7] was 2.2 ± 0.37 µM.
As to `COc1cc(NC(=O)[C@@H](N)Cc2ccc(O)cc2)c2cc1Oc1ccc(cc1)C[C@H]1c3cc(c(OC)cc3CCN1C)Oc1c(OC)c(OC)cc3c1[C@H](C2)N(C)CC3` [Compound 20, 14-N-(L-tyrosine)-tetrandrine], the IC50 in assay [1] is 4.12 ± 0.27 µM; in assay [2], 2.36 ± 0.15 µM; in assay [3], 10 ± 1.28 µM; in assay [4] it was 3.7 ± 0.91 µM; in assay [5], 1.44 ± 0.18 µM; in assay [6], 3.33 ± 0.08 µM. Moreover, the IC50 in assay [7] worked out at 1.91 ± 0.09 µM.
For `COc1cc(NC(=O)[C@@H](N)[C@@H](C)O)c2cc1Oc1ccc(cc1)C[C@H]1c3cc(c(OC)cc3CCN1C)Oc1c(OC)c(OC)cc3c1[C@H](C2)N(C)CC3` [Compound 18, 14-N-(L-threonine)-tetrandrine], the IC50 was 6.81 ± 1.1 µM in assay [1]; 5.6 ± 0.38 µM in assay [2]; > 20 µM in assay [3]; 10.2 ± 0.4 µM in assay [4]; 3.57 ± 0.67 µM in assay [5]; 5.28 ± 0.37 µM in assay [6]. The compound further had an IC50 in assay [7] of 3.25 ± 0.69 µM.
In the case of `COc1cc(NC(=O)CN)c2cc1Oc1ccc(cc1)C[C@H]1c3cc(c(OC)cc3CCN1C)Oc1c(OC)c(OC)cc3c1[C@H](C2)N(C)CC3` [Compound 12, 14-N-(L-glycine)-tetrandrine], the IC50 in assay [1] was 4.94 ± 0.45 µM; in assay [2], 3.98 ± 0.16 µM; in assay [3], > 20 µM; in assay [4], 6.91 ± 0.66 µM; in assay [5], 3.19 ± 0.76 µM; in assay [6] it was 3.54 ± 0.36 µM. The compound further returned an IC50 in assay [7] of 3.19 ± 0.61 µM.
With `COc1cc(NC(=O)[C@@H](N)C(C)C)c2cc1Oc1ccc(cc1)C[C@H]1c3cc(c(OC)cc3CCN1C)Oc1c(OC)c(OC)cc3c1[C@H](C2)N(C)CC3` [Compound 14, 14-N-(L-valine)-tetrandrine], the IC50 is 6.11 ± 0.91 µM in assay [1]; 4.95 ± 0.29 µM in assay [2]; 14.5 ± 0.37 µM in assay [3]; 7.96 ± 1.08 µM in assay [4]; 3.26 ± 0.05 µM in assay [5]; 4.02 ± 0.15 µM in assay [6]. In assay [7], the IC50 was determined as 2.48 ± 0.15 µM.
`COc1cc(NC(=O)[C@H](CC(C)C)NC(=O)OC(C)(C)C)c2cc1Oc1ccc(cc1)C[C@H]1c3cc(c(OC)cc3CCN1C)Oc1c(OC)c(OC)cc3c1[C@H](C2)N(C)CC3` [Compound 6]: the IC50 in assay [1] was 5.54 ± 0.16 µM; in assay [2], 6.39 ± 0.2 µM; in assay [3], 13.58 ± 0.13 µM; in assay [4], 4.99 ± 0.66 µM; in assay [5], 3.11 ± 0.68 µM; in assay [6] it was 3.89 ± 0.47 µM. In assay [7], this compound registered an IC50 of 2.09 ± 0.19 µM.
Take `COc1cc(NC(=O)[C@H](C)NC(=O)OC(C)(C)C)c2cc1Oc1ccc(cc1)C[C@H]1c3cc(c(OC)cc3CCN1C)Oc1c(OC)c(OC)cc3c1[C@H](C2)N(C)CC3` [Compound 4]: the IC50 was 7.44 ± 1.11 µM in assay [1]; 4.74 ± 0.37 µM in assay [2]; > 20 µM in assay [3]; 5.78 ± 0.35 µM in assay [4]; 3.9 ± 0.62 µM in assay [5]; 3.28 ± 0.32 µM in assay [6]. For the same compound, the IC50 in assay [7] was 4.01 ± 0.41 µM.
For the compound `COc1cc(NC(=O)[C@H](CO)NC(=O)OC(C)(C)C)c2cc1Oc1ccc(cc1)C[C@H]1c3cc(c(OC)cc3CCN1C)Oc1c(OC)c(OC)cc3c1[C@H](C2)N(C)CC3` [Compound 8, 14-N-(Boc-L-serine)-tetrandrine], the IC50 in assay [1] was 7.45 ± 0.32 µM; in assay [2], 3.55 ± 0.32 µM; in assay [3] it was > 20 µM; in assay [4] it was 5.84 ± 0.25 µM; in assay [5], 3.76 ± 1.34 µM; in assay [6] it was 5.87 ± 0.3 µM. For the same compound, the IC50 in assay [7] came to 3.96 ± 0.36 µM.
Consider `COc1cc(NC(=O)[C@@H](N)CO)c2cc1Oc1ccc(cc1)C[C@H]1c3cc(c(OC)cc3CCN1C)Oc1c(OC)c(OC)cc3c1[C@H](C2)N(C)CC3` [Compound 17, 14-N-(L-serine)-tetrandrine], for which the IC50 in assay [1] is 7.44 ± 1.02 µM; in assay [2], 3.67 ± 0.19 µM; in assay [3], > 20 µM; in assay [4], 7.53 ± 0.11 µM; in assay [5] it was 3.13 ± 0.7 µM; in assay [6] it was 3.94 ± 0.37 µM. Besides, in assay [7], the IC50 stood at 2.88 ± 0.26 µM.
Turning to `COc1cc(NC(=O)[C@@H](Cc2ccccc2)NC(=O)OC(C)(C)C)c2cc1Oc1ccc(cc1)C[C@H]1c3cc(c(OC)cc3CCN1C)Oc1c(OC)c(OC)cc3c1[C@H](C2)N(C)CC3` [Compound 10], the IC50 was determined as 1.96 ± 0.24 µM in assay [1]; 2.31 ± 0.08 µM in assay [2]; 15.54 ± 0.11 µM in assay [3]; 2.59 ± 0.11 µM in assay [4]; 1.54 ± 0.02 µM in assay [5]; 0.91 ± 0.05 µM in assay [6]. The compound further returned an IC50 in assay [7] of 1.8 ± 0.02 µM. The “Improvement of antiproliferative activity compared with TET” value in assay [6] (HCT-15 cells, vs TET (IC50 = 6.12 μM)) is given as “more than 6 fold”.
In the case of `COc1cc(NC(=O)[C@@H](NC(=O)OC(C)(C)C)[C@@H](C)O)c2cc1Oc1ccc(cc1)C[C@H]1c3cc(c(OC)cc3CCN1C)Oc1c(OC)c(OC)cc3c1[C@H](C2)N(C)CC3` [Compound 9], the IC50 is 12.3 ± 0.61 µM in assay [1]; 13.1 ± 0.37 µM in assay [2]; > 20 µM in assay [3]; 11.3 ± 0.55 µM in assay [4]; 6.97 ± 0.34 µM in assay [5]; 8.57 ± 0.57 µM in assay [6]. The compound also yielded an IC50 in assay [7] of 4.91 ± 1.05 µM.
Turning to `COc1cc(NC(=O)[C@H]2CCCN2C(=O)OC(C)(C)C)c2cc1Oc1ccc(cc1)C[C@H]1c3cc(c(OC)cc3CCN1C)Oc1c(OC)c(OC)cc3c1[C@H](C2)N(C)CC3` [Compound 7, 14-N-(Boc-L-proline)-tetrandrine], the IC50 turned out to be 6.4 ± 0.36 µM in assay [1]; 3.1 ± 0.26 µM in assay [2]; 17.5 ± 0.21 µM in assay [3]; 5.71 ± 0.29 µM in assay [4]; 3.5 ± 1.37 µM in assay [5]; 1.15 ± 0.17 µM in assay [6]. In assay [7], this compound gave an IC50 of 3.49 ± 0.31 µM.

These data come from publication PMC9268013, “Design, Synthesis, and Biological Evaluation of N14-Amino Acid-Substituted Tetrandrine Derivatives as Potential Antitumor Agents against Human Colorectal Cancer” (Molecules, 2022).
